# “Also recorded” adds a separate entry of the source.
# B1: UCH-L1 C220S mutant (S18 background), expressed in E. coli and purified (enzyme, UniProt P09936 1-223, looked up)
# chain: MQLKPMEINPEMLNKVLSRLGVAGQWRFVDVLGLEEESLGSVPAPACALLLLFPLTAQHENFRKKQIEELKGQEVSPKVYFMKQTIGNSCGTIGLIHAVANNQDKLGFEDGSVLKQFLSETEKMSPEDRAKCFEKNEAIQAAHDAVAQEGQCRVDDKVNFHFILFNNVDGHLYELDGRMPFPVNHGASSEDTLLKDAAKVCREFTEREQGEVRFSAVALSKAA
# notes: also called C220S variant
# Experiments:
# UCH-L1 [1] = test: UCH-L1 species in SH-SY5Y cells by 2D electrophoresis and Western blotting (membrane, cytosolic, total); assay type: cell-based
# Protocol: Membrane fractionation: Cells were harvested by scraping and washed with PBS. Cell pellet was suspended in lysis buffer (50 mM Tris-HCl, 1 mM EDTA) supplemented with protease inhibitor cocktail (Sigma) and homogenized by passing through 26G needles 10 times. Suspension was clarified by spinning at 600 g for 5 minutes. Clarified suspension was ultracentrifuged at 100,000 g for 2 hours and separated into membrane and cytosol. Membrane fraction was washed with washing buffer (50 mM Tris-HCl, 1 mM EDTA 1M NaCl), and pelleted each time with bench-top centrifuge.
# 2D electrophoresis: For the isolation of total cellular protein, cultured SH—SY5Y cells maintained as described above were rinsed with ice-cold PBS. Cells were lysed in 1 ml dSDS buffer (50 mM Tris-HCl, pH 8.0 0.1% SDS) supplemented with protease inhibitor cocktail. Lysates were boiled for 3 min, and were treated with Dnase and Rnase as described. Lysates were precipitated with ice-cold acetone for at least 2 hours, and pellets were resuspended in 2D sample buffer (8M urea, 0.5% CHAPS, 0.2% DTT, 0.5% IPG buffer, 0.002% bromophenol blue). 2D electrophoresis was carried out according to manufacture's protocol (Amersham Life Science). 7 cm pH 4-7 strips were used. For SH—SY5Y membrane fraction, culture SH—SY5Y cells were rinsed with cold PBS and harvested with lysis buffer (50 mM Tris-HCl, pH 8.0, 1 mM ZnAc2, 250 mM sucrose). Lysate was passed through 25 G needles for several times and spun at 1000 g for 5 min. Supernatant was centrifuged at 200,000 g for 2 hours. Pellet was extensively washed with lysis buffer and extracted with cold acetone. Pellet was resuspended in 2D sample buffer.
# Western Blotting: Following transfer of SDS gels onto NC membrane, all membranes were blocked with 5% non-fat milk in TBST (50 mM Tris-HCl pH7.4, 150 mM NaCl, 0.1% Tween 20), and incubated with primary antibody overnight with 1% BSA in TBST, washed three times with TBST, and incubated with horseradish peroxidase-conjugated secondary antibody for 1 hour (Promega). Bound antibodies were detected using enhanced chemiluminascence (NEM). […]
# UCH-L1 [2] = test: Pulse-chase experiment, UCH-L1 turnover in SH-SY5Y cells; assay type: cell-based; conditions: pulse-chase experiment not shown
# Source text: Treatment with FTI-277 reduced the total amount of UCH-L1 in SH—SY5Y cells and increased its rate of turnover (pulse-chase experiment not shown), in addition to reducing the amount of membrane-associated protein.
# SH-SY5Y cells = test: alpha-synuclein toxicity in SH-SY5Y cells infected with alpha-synuclein-expressing adenovirus (Trypan blue viable cell counting, MTT assay); assay type: cell-based; conditions: SH-SY5Y cells overexpressing alpha-synuclein via adenoviral vector, compounds for 48 hours, vs DMSO
# Protocol: (§1) Viral Infection: Viral infection and MTT assay in SH—SY5Y cells: The viruses were amplified and purified according to the published procedure. SH—SY5Y cells were grown on 100 mm petri-dishes and induced with 100 nM RA for 3-5 days before the virus infection with M.I.O at 75. Viruses were diluted with DPBS to desired M.I.O. After four hours of incubation, 10 ml growth medium was added. On the second day, cells were splitted into 96-well plates and treated with compounds for next 48 hours. The growth medium in each well was replaced with growth medium with 5 ug/ml MTT. Medium was removed after three hours incubation, and 200 ul isopropyl (0.04N HCl) was added into each well. The signal was read at 570 nm.
# Viable cell counting: At stated time poins, SH—SY5Y cells were trypsinized with 100 ul trypsin-EDTA for 1 minute and neutralized with 400 ul growth medium. Cell suspension was made up by mixing 0.2 ml of cells in growth medium, 0.3 ml of HBSS and 0.5 ml of 0.4% Trypan Blue solution. Viable cell numbers were counted by standard cell counting chamber.
# Since α-synuclein neurotoxicity is dose-dependent, it follows that accumulation of α-synuclein, caused by UCH-L1 farnesylation, should promote its toxicity. […] These cells express high endogenous levels of UCH-L1. […] The unit of y-axis is 10^5/ml. (F) Cell viability was assessed by the amount of metabolic activity using MTT assay. […]
# α-synuclein [3] = test: Amount of alpha-synuclein in infected SH-SY5Y cells by Western blotting; assay type: cell-based; conditions: SH-SY5Y cells infected with alpha-synuclein-expressing adenovirus, normalized against actin
# Protocol: as §1
# Western Blotting: Following transfer of SDS gels onto NC membrane, all membranes were blocked with 5% non-fat milk in TBST (50 mM Tris-HCl pH7.4, 150 mM NaCl, 0.1% Tween 20), and incubated with primary antibody overnight with 1% BSA in TBST, washed three times with TBST, and incubated with horseradish peroxidase-conjugated secondary antibody for 1 hour (Promega). Bound antibodies were detected using enhanced chemiluminascence (NEM).
# Since α-synuclein neurotoxicity is dose-dependent, it follows that accumulation of α-synuclein, caused by UCH-L1 farnesylation, should promote its toxicity. […] (F) Cell viability was assessed by the amount of metabolic activity using MTT assay. […]
# H1299 = test: Cell growth by counting living cells as a function of time, H1299; assay type: cell-based
# Protocol: (§2) To test the effect of farnesyl transferase inhibitor in a cell culture model, H1299 and H358 (FIG. 5B) were treated with 100 nM FTI-277 or DMSO. As a comparison, H1299 was also treated with 5 μM LDN-57414 (UCH-L1 inhibitor), which we have previously shown to increase H1299 cell proliferation (Liu et al 2003). Cell growth was quantified by counting the number of living cells as a function of time. […] The initial acceleration of cell growth in H1299, thus, may be the consequence of inhibition on UCH-L1 farnesylation. This possibility may explain the minimal clinical activity of farnesyl transferase inhibitor in treating patients with NSCLC.
# H358 = test: Cell growth by counting living cells as a function of time, H358; assay type: cell-based; conditions: 100 nM FTI-277, H358 does not express UCH-L1, vs DMSO control
# Protocol: as §2
# α-synuclein [4] = test: alpha-synuclein degradation assay in transfected COS-7 cells (quantitative Western blotting); assay type: cell-based; conditions: 35 μM lactacystin 24 hours, normalized against actin, defines the 100% reference
# Source text: Plasmids: C220S cDNA was generated by PCR site-specific mutagenesis. For the PCR, the 5′ primer is uchforw ([…]) (SEQ ID NO: 5), and 3′ primer is uchc220s ([…] TGCTGAGAGC) (SEQ ID NO: 6). Wt UCH-L1 served as the template. The PCR fragment was inserted into pcDNA vector. For S18YC220S mutant, S18Y UCH-L1 served as the template in PCR. For the FLAG tagged UCH-L1, the 5′ primer is FLAGuchforw ([…] GCAGCTCAAGCCGATGGAG) (SEQ ID NO: 7), and the 3′ primer is uchrev ([…]) (SEQ ID NO: 8). Wt UCH-L1 or C220S served as the template. PCR fragment was purified and inserted into pcDNA vector. For the FLAG tagged UCH-L3, the 5′ primer is L3HindIII ([…] CTG) (SEQ ID NO: 9), the 3′primer is L3XhoISAA (ATCCTCGAGCTATGCT GCAGAAAGAGCAATCGCA) (SEQ ID NO: 10). For the UCH-L3 CKAA variant, the 5′ primer is L3 HindIII and the 3′ primer is L3XhoICKAA (ATCCTCGAGCTA […]) (SEQ ID NO: 11). α-synuclein degradation assay: Liphitamine 2000 was used to transfect COS-7 cells according to the Invitrogen protocol. Transfected cells were cultured at 37° C. for 48 hours before being treated with 35 μM lactacystin or DMSO. After 24 hours of incubation, the cells were lysed with Tris buffer (50 mM Tris, 2% SDS, 0.1% NP-40), and subjected to SDS-PAGE, followed by quantitative Western blotting. […]
# [5] = biological target: the molecule itself; test: self-oligomerisation of purified protein, method not described
# [6] = compared to cells treated with DMSO
molecule,measurement,setting,value
COC(=O)[C@H](CCSC)NC(=O)c1ccc(NC[C@@H](N)CS)cc1-c1ccccc1 [FTI-277],total amount of UCH-L1,UCH-L1 [1],reduced
same,amount of cytosolic UCH-L1,UCH-L1 [1]; [6],without affecting
same,amount of membrane bound UCH-L1,UCH-L1 [1]; [6],significant decrease; also recorded: decreased; also recorded: reducing
same,UCH-L1 rate of turnover,UCH-L1 [2],increased
same,alpha-synuclein toxicity (loss of cells / viability),SH-SY5Y cells,significantly decreased loss of cells; also recorded: rescued; also recorded: protects
same,amount of alpha-synuclein,α-synuclein [3],reduced; also recorded: reducing
same,initial cell growth in H1299,"H1299; 100 nM FTI-277, vs DMSO control",promoted initial cell growth
same,H1299 cell growth after 24 hours of compound treatment,H1299; 100 nM FTI-277 or 5 μM LDN-57414,began to show toxicity
same,initial cell growth in H358,H358,induced initial toxicity
CC(=O)N[C@@H](CSC(=O)[C@]1([C@@H](O)C(C)C)NC(=O)[C@H](C)[C@@H]1O)C(=O)O [lactacysteine],accumulation of alpha-synuclein,α-synuclein [4],100%
B1,binding result,[5],binds

# Reference: US20050272068A1, “UCH-L1 expression and cancer therapy” (The Brigham and Women's Hospital, Inc., priority 2004, published 2005)
